Target: F508del-CFTR (Homo sapiens, UniProt P13569, DEL508-508)
Assay: HS-YFP kinetic fluorescence (iodide quenching rate) assay in CFBE41o− cells
Assay type: cell-based
Parameters: expressed in transfected cells; host or cells: CFBE41o- cells with expression of F508del-CFTR and HS-YFP (generated as in Sondo et al. 2011)
Conditions: for AI additivity index: Table 3, (QRTOT-QRVX)/QRVX; for AI additivity index / AI (%) additivity index: compound at 10 μM plus VX-809; for AI (%) additivity index: (QRTOT − QRVX)/QRVX; for structure-activity comparison of corrector potency/activity: relative to the analogue
Protocol: CFBE41o- cells, with expression of F508del-CFTR and halogen-sensitive fluorescent protein, were generated as previously described (Sondo E, et al. Am J Physiol. 2011, 301, […]-[…]). For the test, the cells were seeded in 96-well microplates using a culture medium consisting of DMEM and Ham's F12 (1:1) supplemented with 10% foetal bovine serum. After 24 hours from seeding, the cells were treated for another 24 hours with the test compounds dissolved in the culture medium at the desired concentrations. As a negative control, the solvent of the compounds (dimethyl sulfoxide, DMSO) dissolved in the medium with the same dilution ratio (final percentage of DMSO:0.1-0.2%) was used. As a positive control, the corrector VX-809 (Selleck Chemicals, […]) was used at a concentration of 1 μM. After treatment, the medium with the compounds was removed and the cells were stimulated with forskolin (Sigma-Aldrich, F6886) 20 μM plus genistein (Sigma-Aldrich, G6649) 50 μM (in 60 μl of PBS saline) to maximally activate the CFTR channels present in the membrane. In a microplate reader (FLUOstar-Omega, BMG) the fluorescence of the cells in each well was read for 14 seconds, with an injection of 165 μl of a iodide-enriched saline (modified PBS where NaCl, 137 mM, has been replaced with the same concentration of NaI). The iodide transport activity in each well was evaluated by subtraction of the background fluorescence (measured in a well without cells), subsequent normalization with respect to the initial fluorescence and finally by interpolation of the fluorescence quenching phase with an exponential function that allows the derivation of the maximum slope (quenching rate, QR). The activity of the synthesized compounds was initially evaluated on the CFBE41o- cell line with expression of the mutated F508del-CFTR protein described above (Sondo E, et al. Am J Physiol. 2011, 301, […]-[…]). For this purpose, a functional assay based on the fluorescent YFP protein sensitive to halides, HS-YFP, was used (Galietta L J, et al. J Biol Chem. 2001, 276, 19723-19728). The fluorescence of the HS-YFP protein is turned off by iodide. Therefore, if exposed to a solution containing iodide, cells with HS-YFP expression show a quenching speed of the fluorescence which depends on the presence and activity of anionic channels. Under control conditions, the mutated CFTR protein presents a serious defect of stability and maturation, so it remains trapped in the endoplasmic reticulum not reaching the cell surface in enough quantity. In the HS-YFP-based assay, this defect results in a low anion transport capacity and therefore in a low quenching rate (QR). Treatment for a prolonged time (e.g. 24 hours) with a corrector determines an improvement in protein maturation with an increase in the number of CFTR channels present in the membrane and therefore an increase in the flux of iodide and QR. In a first phase, the authors screened about 200 heterocyclic molecules with various nitrogenated tricyclic scaffolds. Conditions previously described have been used for screening (Sondo E, et al. Am J Physiol. 2011, 301, […]-[…]) and reported herein in the Materials and Methods section. A threshold equal to the average value plus three times the standard deviation of the QR of wells without compounds (only DMSO in the culture medium) was used as a criterion for the selection of active compounds.

Chain of F508del-CFTR (P13569 with tags, fused parts or gaps DEL508-508): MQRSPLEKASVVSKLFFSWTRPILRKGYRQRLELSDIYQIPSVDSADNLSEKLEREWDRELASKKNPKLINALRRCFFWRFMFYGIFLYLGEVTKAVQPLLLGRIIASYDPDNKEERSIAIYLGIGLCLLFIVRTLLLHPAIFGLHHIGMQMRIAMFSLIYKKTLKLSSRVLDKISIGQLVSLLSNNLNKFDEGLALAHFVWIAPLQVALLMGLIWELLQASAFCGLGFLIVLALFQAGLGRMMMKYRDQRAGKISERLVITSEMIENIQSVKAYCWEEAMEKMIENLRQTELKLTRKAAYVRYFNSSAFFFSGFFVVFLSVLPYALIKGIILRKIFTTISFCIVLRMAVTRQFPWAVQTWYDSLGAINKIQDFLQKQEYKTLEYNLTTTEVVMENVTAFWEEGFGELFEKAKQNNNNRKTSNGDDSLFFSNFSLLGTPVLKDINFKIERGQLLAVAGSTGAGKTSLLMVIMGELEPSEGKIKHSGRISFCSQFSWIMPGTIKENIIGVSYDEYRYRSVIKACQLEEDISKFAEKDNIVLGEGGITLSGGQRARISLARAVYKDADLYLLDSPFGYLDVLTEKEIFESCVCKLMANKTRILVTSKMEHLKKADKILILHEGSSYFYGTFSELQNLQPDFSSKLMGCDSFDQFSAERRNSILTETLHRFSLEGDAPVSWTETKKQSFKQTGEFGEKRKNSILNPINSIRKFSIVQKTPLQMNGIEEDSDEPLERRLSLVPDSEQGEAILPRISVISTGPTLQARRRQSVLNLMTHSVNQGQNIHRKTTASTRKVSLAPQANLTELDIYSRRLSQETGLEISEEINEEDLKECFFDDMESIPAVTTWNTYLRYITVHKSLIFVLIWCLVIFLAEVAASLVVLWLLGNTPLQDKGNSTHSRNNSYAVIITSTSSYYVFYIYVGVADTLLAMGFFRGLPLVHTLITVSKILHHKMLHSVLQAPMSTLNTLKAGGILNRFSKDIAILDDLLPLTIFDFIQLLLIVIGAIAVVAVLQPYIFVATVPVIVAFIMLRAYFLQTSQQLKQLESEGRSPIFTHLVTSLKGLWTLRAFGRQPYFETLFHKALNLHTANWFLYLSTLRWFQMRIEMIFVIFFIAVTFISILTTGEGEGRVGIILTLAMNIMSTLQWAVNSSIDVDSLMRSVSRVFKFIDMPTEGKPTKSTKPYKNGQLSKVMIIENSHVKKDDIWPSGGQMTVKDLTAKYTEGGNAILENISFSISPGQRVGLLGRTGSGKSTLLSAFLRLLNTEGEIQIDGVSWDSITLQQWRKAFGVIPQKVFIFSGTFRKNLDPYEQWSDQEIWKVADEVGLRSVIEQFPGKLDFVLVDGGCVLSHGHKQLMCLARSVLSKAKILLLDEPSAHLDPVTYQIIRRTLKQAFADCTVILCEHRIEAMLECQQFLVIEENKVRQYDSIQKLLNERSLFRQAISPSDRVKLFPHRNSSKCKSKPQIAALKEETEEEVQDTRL

AI (%) additivity index (Table 1, HS-YFP assay) [%] | SMILES | further results
 | CCOC(=O)c1c(Br)c2c(n1Cc1ccc(C)c(C)c1)-c1nc(NS(=O)(=O)c3ccccc3)ncc1CC2 [SVQ14, Ethyl 2-[(benzenesulfonyl)amino]-7-bromo-9-[(3,4-dimethylphenyl)methyl]-6,9-dihydro-5H-pyrrolo[3,2-h]quinazoline-8-carboxylate] | AI additivity index: 128%
 | CCOC(=O)c1cc2c(n1Cc1ccc(Br)cc1)-c1nc(NS(=O)(=O)c3ccccc3)ncc1CC2 [SVQ15, Ethyl 2-[(benzenesulfonyl)amino]-9-[(4-bromophenyl)methyl]-6,9-dihydro-5H-pyrrolo[3,2-h]quinazoline-8-carboxylate] | AI additivity index: 100%
 | CC(C)OC(=O)c1c(Br)cc2n1CCc1cc(S(=O)(=O)c3ccccc3)c(=O)[nH]c1-2 [QZN10, Propan-2-yl 3-(benzenesulfonyl)-9-bromo-2-oxo-1,2,5,6-tetrahydropyrrolo[1,2-h][1,7]naphthyridine-8-carboxylate] | AI (%) additivity index (Table 4): 101%
335 | CC(C)OC(=O)c1cc2c(n1Cc1ccc(F)cc1)-c1[nH]c(=O)c(S(=O)(=O)c3ccccc3)cc1CC2 [PP107, Propan-2-yl 7-(benzenesulfonyl)-1-[(4-fluorophenyl)methyl]-8-oxo-4,5,8,9-tetrahydro-1H-pyrrolo[3,2-h]quinoline-2-carboxylate] | 
277 | CC(C)OC(=O)c1c(Br)c2c(n1CC1CC1)-c1[nH]c(=O)c(S(=O)(=O)c3ccccc3)cc1CC2 [PP106, Propan-2-yl 7-(benzenesulfonyl)-3-bromo-1-(cyclopropylmethyl)-8-oxo-4,5,8,9-tetrahydro-1H-pyrrolo[3,2-h]quinoline-2-carboxylate] | 
29 | COC(=O)c1cc2c(n1Cc1ccc(C)cc1)-c1[nH]c(=O)c(S(=O)(=O)c3ccccc3)cc1CC2 [PP019, Methyl 1-(4-methylbenzyl)-8-oxo-7-(phenylsulfonyl)-4,5,8,9-tetrahydro-1H-pyrrolo[3,2-h]quinoline-2-carboxylate] | 
 | Cc1cc(=O)oc2c1cc(C)c1occ(C)c12 [TMA, 4,6,4′-trimethylangelicin, reference compound] | corrective activity of TMA (50-500 nM, 1 and 10 μM, with and without VX-809 1 μM, FIG. 4): ineffective at all concentrations
 | CCOC(=O)c1c(Br)c2c(n1Cc1ccc(Br)cc1)-c1nc(NS(=O)(=O)c3ccccc3)ncc1CC2 [SVQ16, Ethyl 2-[(benzenesulfonyl)amino]-7-bromo-9-[(4-bromophenyl)methyl]-6,9-dihydro-5H-pyrrolo[3,2-h]quinazoline-8-carboxylate] | AI additivity index: 98%
114 | CCOC(=O)c1c(Br)c2c(n1Cc1ccc(C)cc1C)-c1[nH]c(=O)c(S(=O)(=O)c3ccccc3)cc1CC2 [PP033, Ethyl 7-(benzenesulfonyl)-3-bromo-1-[(2,4-dimethylphenyl)methyl]-8-oxo-4,5,8,9-tetrahydro-1H-pyrrolo[3,2-h]quinoline-2-carboxylate] | structure-activity comparison of corrector potency/activity: reduction in activity compared to PP008
38 | Cc1ccc(Cn2c(C(=O)O)c(Br)c3c2-c2[nH]c(=O)c(S(=O)(=O)c4ccccc4)cc2CC3)cc1 [PP079, 7-(Benzenesulfonyl)-3-bromo-1-[(4-methylphenyl)methyl]-8-oxo-4,5,8,9-tetrahydro-1H-pyrrolo[3,2-h]quinoline-2-carboxylic acid] | 
103 | Cc1cccc(Cn2c(C(=O)Nc3cc(C(C)(C)C)on3)c(Br)c3c2-c2[nH]c(=O)c(S(=O)(=O)c4ccccc4)cc2CC3)c1 [PP102, 7-(Benzenesulfonyl)-3-bromo-N-(5-tert-butyl-1,2-oxazol-3-yl)-1-[(3-methylphenyl)methyl]-8-oxo-4,5,8,9-tetrahydro-1H-pyrrolo[3,2-h]quinoline-2-carboxamide] | 
 | CC(C)OC(=O)c1ccc2n1CCCc1cc(S(=O)(=O)c3ccccc3)c(=O)[nH]c1-2 [QZN13, Propan-2-yl 3-(benzenesulfonyl)-2-oxo-1,5,6,7-tetrahydro-2H-pyrido[2,3-c]pyrrolo[1,2-a]azepine-9-carboxylate] | AI (%) additivity index (Table 4): 8%
335 | CCOC(=O)c1c(Br)c2c(n1Cc1ccc(C)c(C)c1)-c1[nH]c(=O)c(S(=O)(=O)c3ccccc3)cc1CC2 [PP037, Ethyl 7-(benzenesulfonyl)-3-bromo-1-[(3,4-dimethylphenyl)methyl]-8-oxo-4,5,8,9-tetrahydro-1H-pyrrolo[3,2-h]quinoline-2-carboxylate] | structure-activity comparison of corrector potency/activity: increase in potency compared to PP008
175 | CCOC(=O)c1c(Br)c2c(n1Cc1c(C)cc(C)cc1C)-c1[nH]c(=O)c(S(=O)(=O)c3ccccc3)cc1CC2 [PP069, Ethyl 7-(benzenesulfonyl)-3-bromo-8-oxo-1-[(2,4,6-trimethylphenyl)methyl]-4,5,8,9-tetrahydro-1H-pyrrolo[3,2-h]quinoline-2-carboxylate] | 
185 | CCOC(=O)c1c(Br)c2c(n1Cc1ccccc1C)-c1[nH]c(=O)c(S(=O)(=O)c3ccccc3)cc1CC2 [PP027, Ethyl 3-bromo 1-(2-methylbenzyl)-8-oxo-7-(phenylsulfonyl)-4,5,8,9-tetrahydro-1H-pyrrolo[3,2-h]quinoline-2-carboxylate] | structure-activity comparison of corrector potency/activity: potency comparable to that of PP008
3 | CC(C)NC(=O)c1cc2c(n1Cc1ccc(Br)cc1)-c1[nH]c(=O)c(S(=O)(=O)c3ccccc3)cc1CC2 [PP096, 7-(Benzenesulfonyl)-1-[(4-bromophenyl)methyl]-8-oxo-N-(propan-2-yl)-4,5,8,9-tetrahydro-1H-pyrrolo[3,2-h]quinoline-2-carboxamide] | 
35 | CCOC(=O)c1c(Br)c2c(n1Cc1ccc(C(F)(F)F)cc1)-c1[nH]c(=O)c(S(=O)(=O)c3ccccc3)cc1CC2 [PP071, Ethyl 7-(benzenesulfonyl)-3-bromo-8-oxo-1-{[4-(trifluoromethyl)phenyl]methyl}-4,5,8,9-tetrahydro-1H-pyrrolo[3,2-h]quinoline-2-carboxylate] | 
36 | Cc1cccc(Cn2c(C(=O)O)cc3c2-c2[nH]c(=O)c(S(=O)(=O)c4ccccc4)cc2CC3)c1 [PP090, 7-(Benzenesulfonyl)-1-[(3-methylphenyl)methyl]-8-oxo-4,5,8,9-tetrahydro-1H-pyrrolo[3,2-h]quinoline-2-carboxylic acid] | 
 | CCOC(=O)c1cc2c(n1Cc1cccc(C)c1)-c1nc(NS(=O)(=O)c3ccccc3)ncc1CC2 [SVQ11, Ethyl 2-[(benzenesulfonyl)amino]-9-[(3-methylphenyl)methyl]-6,9-dihydro-5H-pyrrolo[3,2-h]quinazoline-8-carboxylate] | AI additivity index: 151%
 | CCOC(=O)c1ccc2n1CCCc1cc(S(=O)(=O)c3ccccc3)c(=O)[nH]c1-2 [QZN5, Ethyl 3-(benzenesulfonyl)-2-oxo-1,5,6,7-tetrahydro-2H-pyrido[2,3-c]pyrrolo[1,2-a]azepine-9-carboxylate] | AI (%) additivity index (Table 4): 19%
150 | CCOC(=O)c1cc2c(n1Cc1ccccc1)-c1[nH]c(=O)c(S(=O)(=O)c3ccccc3)cc1CC2 [PP011] | structure-activity comparison of corrector potency/activity: causes a reduction in activity
95 | CCOC(=O)c1cc2c(n1Cc1ccc(I)cc1)-c1[nH]c(=O)c(S(=O)(=O)c3ccccc3)cc1CC2 [PP062, Ethyl 7-(benzenesulfonyl)-1-[(4-iodophenyl)methyl]-8-oxo-4,5,8,9-tetrahydro-1H-pyrrolo[3,2-h]quinoline-2-carboxylate] | 
